# Measurements as given in patent US20120122913A1, “COMBINATION OF CURCUMINOIDS AND MTOR INHIBITORS FOR THE TREATMENT OF TAUOPATHIES” (Institut National De La Recherche Scientifque, priority 2009, published 2012).
# Key:
# [1] = system: differentiated SH-SY5Y cells; test: MTT cell viability assay in differentiated SH-SY5Y cells exposed to β-amyloid(1-42); conditions: 48 h
# Protocol: For the cytotoxicity assay, 48 well-plates were seeded with 180,000 cells and 500 μl of culture medium was added. Five Petri dishes (or 6-well plates) were prepared for each treatment. […] On day 7, the culture medium was removed and changed with a medium free of retinoic acid and FBS, but containing 2 nM of BDNF (Sigma Cat. No. B3795), from a 2 μM master solution in filtered sterile water). Chemical treatments were initiated and kept for 48 h. […] The Human Beta Amyloid (Aβ(1-42), Chemicon Cat. No. AG972) solution was prepared according to the manufacturer's instructions. […] The solution was subsequently diluted in serum-deprived culture medium containing BDNF (2 nM final concentration) to obtain either a 5 nM or 5 μM Aβ(1-42) final concentration.
# In parallel, on day 9, plates were used for the MTT cell viability assay. A volume of 62.5 μl of a 3-(4,5-Dimethylthiazol-2-yl)-2,5-diphenyltetrazolium bromide (MTT) solution (5 mg/ml in a 1:1 PBS/culture medium) was added, then plates were incubated for 4 h. A volume of 312.5 μl of isopropanol—0.1N HCl was added, then for each well the content was mixed using a pipette (wide bore tip) to solubilize the product. The optical density at 560 nm, which is proportional to the number of living cells, was measured (reference at 690 nm).
# Tau protein = test: Total Tau protein level by Western blot in differentiated SH-SY5Y cells exposed to β-amyloid(1-42); type: cell-based, human; conditions: 48 h
# Protocol: Chemical treatments were initiated and kept for 48 h.
# On day 8, cells were observed under an inverted microscope to ensure that they are fully adherent and free of microbial contamination. On day 9, Petri dishes were used for Western Blot analyses. […] Cells were then removed with a cell scraper, transferred to a 0.6 ml microtube and kept on ice. Samples were sonicated for 30 seconds and mixed with a vortex for 5 seconds and the procedure was repeated once. Samples obtained were stored at −80 ° C. in aliquots of 20 μl. For SDS-PAGE analysis, samples (20 μl) were mixed with 7.34 μl of 4× SDS gel loading buffer (200 mM Tris-HCl, pH 6.8, 8% SDS, 20% Glycerol, 0.4% bromophenol blue and 400 mM β-mercaptoethanol) and 2 μl of cell lysing buffer, boiled for 10 min, cooled on ice, spun on a microcentrifuge and transferred to wells of an electrophoresis apparatus containing a 4% acrylamide stacking gel and a 8% acrylamide resolving gel. Electrophoresis protein separation was performed overnight using a constant current (40 V). Proteins were transferred to nitrocellulose by electro-blotting in a 20% methanol-transfer buffer with a constant 900 mA current for 90 min. Ponceau Red staining was performed to evaluate the quality of loading and transfer. […] The membrane was then washed 4 times for 5 min each time with TBS-0.1% Tween™, and soaked with the chemiluminescence substrate (Enhanced Luminol™ from PerkinElmer). X-Ray films were exposed to the membranes long enough to optimize each band detection. Band Intensity was quantified using a Fluor-S Multimager™ (Bio-Rad scanner) and the Quantity One™ software (Bio-Rad) and data adjusted with local background.
smiles,measurement,setting,value
"COc1cc(/C=C/C(=O)CC(=O)/C=C/c2ccc(O)c(OC)c2)ccc1O [curcumin, (E,E)-1,7-bis(4-Hydroxy-3-methoxyphenyl)-1,6-heptadiene-3,5-dione]","cytotoxicity (cell viability, MTT)","[1]; 10 μM curcumin, 5 μM β-amyloid(1-42), FIG. 4",none of these three treatments were cytotoxic
same,"cytotoxicity (cell viability, MTT)","[1]; 15 μM curcumin, 5 nM β-amyloid(1-42), FIG. 6",none of these three treatments were cytotoxic
same,"cytotoxicity (cell viability, MTT)","[1]; 20 μM curcumin, 5 nM β-amyloid(1-42), FIG. 2",none of these three treatments were cytotoxic
same,reduction in the total amount of Tau protein as compared to controls,"Tau protein; 10 μM curcumin, 5 μM human β-amyloid(1-42), FIG. 3",0.5%
same,reduction in the total amount of Tau protein as compared to controls,"Tau protein; 15 μM curcumin, 5 nM human β-amyloid(1-42), FIG. 5",6.7%
same,reduction in the total amount of Tau protein as compared to controls,"Tau protein; 20 μM curcumin, 5 nM human β-amyloid(1-42), FIG. 1",2.1%
CO[C@H]1C[C@@H]2CC[C@@H](C)[C@@](O)(O2)C(=O)C(=O)N2CCCC[C@H]2C(=O)O[C@H]([C@H](C)C[C@@H]2CC[C@@H](OC(=O)C(C)(CO)CO)[C@H](OC)C2)CC(=O)[C@H](C)/C=C(\C)[C@@H](O)[C@@H](OC)C(=O)[C@H](C)C[C@H](C)/C=C/C=C/C=C/1C [Temsirolimus],"cytotoxicity (cell viability, MTT)","[1]; 2 nM Temsirolimus, 5 nM β-amyloid(1-42), FIG. 6",none of these three treatments were cytotoxic
same,reduction in the total amount of Tau protein as compared to controls,"Tau protein; 2 nM Temsirolimus, 5 nM human β-amyloid(1-42), FIG. 5",5.3%
CO[C@H]1C[C@@H]2CC[C@@H](C)[C@@](O)(O2)C(=O)C(=O)N2CCCC[C@H]2C(=O)O[C@H]([C@H](C)C[C@@H]2CC[C@@H](OCCO)[C@H](OC)C2)CC(=O)[C@H](C)/C=C(\C)[C@@H](O)[C@@H](OC)C(=O)[C@H](C)C[C@H](C)/C=C/C=C/C=C/1C [Everolimus],"cytotoxicity (cell viability, MTT)","[1]; 1 nM Everolimus, 5 μM β-amyloid(1-42), FIG. 4",none of these three treatments were cytotoxic
same,"cytotoxicity (cell viability, MTT)","[1]; 2 nM Everolimus, 5 nM β-amyloid(1-42), FIG. 2",none of these three treatments were cytotoxic
same,reduction in the total amount of Tau protein as compared to controls,"Tau protein; 1 nM Everolimus, 5 μM human β-amyloid(1-42), FIG. 3",17.2%
same,reduction in the total amount of Tau protein as compared to controls,"Tau protein; 2 nM Everolimus, 5 nM human β-amyloid(1-42), FIG. 1",18.7%
